Measured values taken from ChEMBL document CHEMBL5303304, “EUbOPEN Chemogenomics Library - IncuCyte” (2023).

Key:
Assay type in all cases: toxicity, cell-based
[1] = test system: HEK-293T; assay: Incucyte cell viability with HEK293T; conditions: human, 10 µM, compound concentration 10 uM
[2] = test system: Fibroblast; assay: Incucyte cell viability with human fibroblast; conditions: 10 µM, compound concentration 10 uM
[3] = test system: U2OS; assay: Incucyte cell viability with U2OS; conditions: human, 10 µM, compound concentration 10 uM
Also: unitless GR value; below 1 slowed growth and below 0 cell loss.

**Q.** For `Cc1cc(-c2nc(-c3ccc(OC(F)(F)F)cc3)no2)nn1Cc1ccnc(N2CCN(C3CC3)CC2)c1`, which “Growth Rate” value ([1]; 6 h, replicate number 1) is on record?
**A.** The value was 0.47.

**Q.** And the “Growth Rate” value ([1]; 6 h, replicate number 2)?
**A.** Its value is -0.22.

**Q.** And the “Growth Rate” value ([1]; 12 h, replicate number 1)?
**A.** Its value is 0.32.

**Q.** And the “Growth Rate” value ([1]; 12 h, replicate number 2)?
**A.** The value was 0.08.

**Q.** And the “Growth Rate” value ([1]; 18 h, replicate number 1)?
**A.** Its value is 0.25.

**Q.** What about the “Growth Rate” value ([1]; 18 h, replicate number 2) of the same compound?
**A.** The value was 0.18.

**Q.** And the “Growth Rate” value ([1]; 24 h, replicate number 1)?
**A.** Its value is 0.37.

**Q.** What about the “Growth Rate” value ([1]; 24 h, replicate number 2) of the same compound?
**A.** Its value is 0.3.

**Q.** And the “Growth Rate” value ([2]; 0 h, replicate number 1)?
**A.** Its value is -1.

**Q.** What about the “Growth Rate” value ([2]; 6 h, replicate number 1) of the same compound?
**A.** Its value is 0.9.

**Q.** What about the “Growth Rate” value ([2]; 12 h, replicate number 1) of the same compound?
**A.** Its value is 0.3.

**Q.** And the “Growth Rate” value ([2]; 12 h, replicate number 2)?
**A.** The value was 0.36.

**Q.** What about the “Growth Rate” value ([2]; 18 h, replicate number 1) of the same compound?
**A.** The value was 0.22.

**Q.** What about the “Growth Rate” value ([2]; 18 h, replicate number 2) of the same compound?
**A.** Its value is 0.2.

**Q.** And the “Growth Rate” value ([2]; 24 h, replicate number 1)?
**A.** The value was 0.26.

**Q.** What about the “Growth Rate” value ([2]; 24 h, replicate number 2) of the same compound?
**A.** The value was 0.5.

**Q.** And the “Growth Rate” value ([3]; 12 h, replicate number 1)?
**A.** The value was 0.94.

**Q.** What about the “Growth Rate” value ([3]; 12 h, replicate number 2) of the same compound?
**A.** The value was 0.51.

**Q.** What about the “Growth Rate” value ([3]; 18 h, replicate number 2) of the same compound?
**A.** The value was 0.61.

**Q.** And the “Growth Rate” value ([3]; 24 h, replicate number 1)?
**A.** Its value is 0.88.

**Q.** What about the “Growth Rate” value ([3]; 24 h, replicate number 2) of the same compound?
**A.** Its value is 0.71.

**Q.** `CC(C)(C)c1cc(NC(=O)c2csc(Nc3ccccn3)n2)no1` was tested. Which “Growth Rate” value ([1]; 6 h, replicate number 1) did it give?
**A.** Its value is -0.14.

**Q.** What about the “Growth Rate” value ([1]; 6 h, replicate number 2) of the same compound?
**A.** The value was -0.51.

**Q.** What about the “Growth Rate” value ([1]; 12 h, replicate number 1) of the same compound?
**A.** Its value is 0.04.

**Q.** And the “Growth Rate” value ([1]; 12 h, replicate number 2)?
**A.** Its value is -0.02.

**Q.** What about the “Growth Rate” value ([1]; 18 h, replicate number 1) of the same compound?
**A.** The value was 0.08.

**Q.** And the “Growth Rate” value ([1]; 18 h, replicate number 2)?
**A.** The value was 0.01.

**Q.** And the “Growth Rate” value ([1]; 24 h, replicate number 1)?
**A.** The value was 0.31.

**Q.** What about the “Growth Rate” value ([1]; 24 h, replicate number 2) of the same compound?
**A.** Its value is 0.2.

**Q.** What about the “Growth Rate” value ([2]; 6 h, replicate number 1) of the same compound?
**A.** Its value is 0.76.

**Q.** And the “Growth Rate” value ([2]; 6 h, replicate number 2)?
**A.** Its value is -0.67.

**Q.** What about the “Growth Rate” value ([2]; 12 h, replicate number 1) of the same compound?
**A.** Its value is 0.84.

**Q.** And the “Growth Rate” value ([2]; 12 h, replicate number 2)?
**A.** The value was 0.03.

**Q.** What about the “Growth Rate” value ([2]; 18 h, replicate number 1) of the same compound?
**A.** The value was 0.21.

**Q.** What about the “Growth Rate” value ([2]; 18 h, replicate number 2) of the same compound?
**A.** The value was 0.35.

**Q.** What about the “Growth Rate” value ([2]; 24 h, replicate number 1) of the same compound?
**A.** The value was 0.31.

**Q.** What about the “Growth Rate” value ([2]; 24 h, replicate number 2) of the same compound?
**A.** Its value is 0.35.

**Q.** And the “Growth Rate” value ([3]; 0 h, replicate number 1)?
**A.** Its value is 0.58.

**Q.** And the “Growth Rate” value ([3]; 6 h, replicate number 1)?
**A.** Its value is 0.51.

**Q.** And the “Growth Rate” value ([3]; 12 h, replicate number 1)?
**A.** Its value is 0.72.

**Q.** What about the “Growth Rate” value ([3]; 12 h, replicate number 2) of the same compound?
**A.** Its value is 0.69.

**Q.** What about the “Growth Rate” value ([3]; 18 h, replicate number 1) of the same compound?
**A.** Its value is 0.81.

**Q.** And the “Growth Rate” value ([3]; 24 h, replicate number 1)?
**A.** Its value is 0.65.

**Q.** What about the “Growth Rate” value ([3]; 24 h, replicate number 2) of the same compound?
**A.** The value was 0.97.

**Q.** Which “Growth Rate” value ([1]; 6 h, replicate number 1) does the source give for `CCS(=O)(=O)Nc1cccc(Oc2cc(F)cc(Nc3ccc(I)cc3F)c2NS(=O)(=O)C2CC2)c1` here?
**A.** Its value is 0.37.

**Q.** What about the “Growth Rate” value ([1]; 6 h, replicate number 2) of the same compound?
**A.** The value was -0.1.

**Q.** And the “Growth Rate” value ([1]; 12 h, replicate number 1)?
**A.** The value was 0.34.

**Q.** What about the “Growth Rate” value ([1]; 12 h, replicate number 2) of the same compound?
**A.** Its value is 0.42.

**Q.** What about the “Growth Rate” value ([1]; 18 h, replicate number 1) of the same compound?
**A.** Its value is 0.6.

**Q.** And the “Growth Rate” value ([1]; 18 h, replicate number 2)?
**A.** Its value is 0.5.

**Q.** And the “Growth Rate” value ([1]; 24 h, replicate number 1)?
**A.** Its value is 0.61.

**Q.** What about the “Growth Rate” value ([1]; 24 h, replicate number 2) of the same compound?
**A.** The value was 0.48.

**Q.** And the “Growth Rate” value ([2]; 0 h, replicate number 1)?
**A.** The value was -1.

**Q.** What about the “Growth Rate” value ([2]; 0 h, replicate number 2) of the same compound?
**A.** Its value is 0.69.

**Q.** What about the “Growth Rate” value ([2]; 6 h, replicate number 1) of the same compound?
**A.** The value was 0.24.

**Q.** And the “Growth Rate” value ([2]; 6 h, replicate number 2)?
**A.** The value was -0.17.

**Q.** What about the “Growth Rate” value ([3]; 6 h, replicate number 1) of the same compound?
**A.** Its value is 0.85.

**Q.** And the “Growth Rate” value ([3]; 12 h, replicate number 1)?
**A.** The value was 0.89.

**Q.** And the “Growth Rate” value ([3]; 12 h, replicate number 2)?
**A.** The value was 0.78.

**Q.** And the “Growth Rate” value ([3]; 18 h, replicate number 1)?
**A.** The value was 0.91.

**Q.** What about the “Growth Rate” value ([3]; 18 h, replicate number 2) of the same compound?
**A.** Its value is 1.

**Q.** What about the “Growth Rate” value ([3]; 24 h, replicate number 1) of the same compound?
**A.** Its value is 0.78.

**Q.** For `Cc1c(CN2CCC3(CC2)CN(c2ncnc4sc(CC(F)(F)F)cc24)C3)ccc2c1cc(C#N)n2CC(N)=O`, which “Growth Rate” value ([1]; 6 h, replicate number 1) is on record?
**A.** Its value is 0.58.

**Q.** What about the “Growth Rate” value ([1]; 6 h, replicate number 2) of the same compound?
**A.** Its value is -0.05.

**Q.** What about the “Growth Rate” value ([1]; 12 h, replicate number 1) of the same compound?
**A.** Its value is 0.59.

**Q.** What about the “Growth Rate” value ([1]; 12 h, replicate number 2) of the same compound?
**A.** The value was 0.34.

**Q.** What about the “Growth Rate” value ([1]; 18 h, replicate number 1) of the same compound?
**A.** The value was 0.63.

**Q.** What about the “Growth Rate” value ([1]; 18 h, replicate number 2) of the same compound?
**A.** The value was 0.44.

**Q.** What about the “Growth Rate” value ([1]; 24 h, replicate number 1) of the same compound?
**A.** Its value is 0.69.

**Q.** And the “Growth Rate” value ([1]; 24 h, replicate number 2)?
**A.** Its value is 0.47.

**Q.** What about the “Growth Rate” value ([2]; 0 h, replicate number 1) of the same compound?
**A.** Its value is -1.

**Q.** And the “Growth Rate” value ([2]; 6 h, replicate number 1)?
**A.** Its value is -0.45.

**Q.** What about the “Growth Rate” value ([2]; 6 h, replicate number 2) of the same compound?
**A.** Its value is -0.88.

**Q.** And the “Growth Rate” value ([2]; 12 h, replicate number 1)?
**A.** Its value is -0.4.

**Q.** And the “Growth Rate” value ([2]; 12 h, replicate number 2)?
**A.** Its value is -0.34.

**Q.** And the “Growth Rate” value ([2]; 18 h, replicate number 1)?
**A.** Its value is -0.16.

**Q.** And the “Growth Rate” value ([2]; 18 h, replicate number 2)?
**A.** The value was -0.22.

**Q.** And the “Growth Rate” value ([2]; 24 h, replicate number 1)?
**A.** The value was -0.05.

**Q.** And the “Growth Rate” value ([2]; 24 h, replicate number 2)?
**A.** The value was 0.09.

**Q.** And the “Growth Rate” value ([3]; 0 h, replicate number 2)?
**A.** The value was 0.3.

**Q.** And the “Growth Rate” value ([3]; 6 h, replicate number 1)?
**A.** The value was 1.

**Q.** What about the “Growth Rate” value ([3]; 24 h, replicate number 1) of the same compound?
**A.** Its value is 0.94.

**Q.** With `CCCNc1ccc2ncc(-c3ccncc3)n2n1` as the compound, how does the “Growth Rate” value ([1]; 6 h, replicate number 1) read?
**A.** The value was -0.19.

**Q.** And the “Growth Rate” value ([1]; 6 h, replicate number 2)?
**A.** Its value is -0.3.

**Q.** And the “Growth Rate” value ([1]; 12 h, replicate number 1)?
**A.** The value was -0.26.

**Q.** What about the “Growth Rate” value ([1]; 12 h, replicate number 2) of the same compound?
**A.** The value was -0.13.

**Q.** And the “Growth Rate” value ([1]; 18 h, replicate number 1)?
**A.** The value was -0.11.

**Q.** And the “Growth Rate” value ([1]; 24 h, replicate number 1)?
**A.** The value was 0.02.

**Q.** And the “Growth Rate” value ([1]; 24 h, replicate number 2)?
**A.** The value was -0.01.

**Q.** And the “Growth Rate” value ([2]; 0 h, replicate number 2)?
**A.** Its value is 0.59.

**Q.** What about the “Growth Rate” value ([2]; 6 h, replicate number 1) of the same compound?
**A.** Its value is 0.14.

**Q.** And the “Growth Rate” value ([2]; 6 h, replicate number 2)?
**A.** The value was 0.27.

**Q.** And the “Growth Rate” value ([2]; 12 h, replicate number 1)?
**A.** Its value is 0.2.

**Q.** What about the “Growth Rate” value ([2]; 12 h, replicate number 2) of the same compound?
**A.** The value was 0.09.

**Q.** And the “Growth Rate” value ([2]; 18 h, replicate number 1)?
**A.** The value was 0.11.

**Q.** What about the “Growth Rate” value ([2]; 18 h, replicate number 2) of the same compound?
**A.** The value was 0.04.

**Q.** What about the “Growth Rate” value ([2]; 24 h, replicate number 1) of the same compound?
**A.** The value was 0.13.

**Q.** What about the “Growth Rate” value ([2]; 24 h, replicate number 2) of the same compound?
**A.** Its value is 0.09.

**Q.** What about the “Growth Rate” value ([3]; 0 h, replicate number 1) of the same compound?
**A.** Its value is -1.

**Q.** What about the “Growth Rate” value ([3]; 6 h, replicate number 1) of the same compound?
**A.** The value was 0.96.

**Q.** What about the “Growth Rate” value ([3]; 12 h, replicate number 1) of the same compound?
**A.** Its value is 0.48.

**Q.** And the “Growth Rate” value ([3]; 18 h, replicate number 1)?
**A.** Its value is 0.14.

**Q.** What about the “Growth Rate” value ([3]; 18 h, replicate number 2) of the same compound?
**A.** The value was 0.66.

**Q.** And the “Growth Rate” value ([3]; 24 h, replicate number 1)?
**A.** Its value is 0.15.

**Q.** What about the “Growth Rate” value ([3]; 24 h, replicate number 2) of the same compound?
**A.** Its value is 0.45.
